According to patent US9073821B2, “Hydroxamic acid derivative” (priority 2010, dated 2015):

Molecular target: Pseudomonas aeruginosa LpxC enzyme (Pseudomonas aeruginosa (strain ATCC 15692 / DSM 22644 / CIP 104116 / JCM 14847 / LMG 12228 / 1C / PRS 101 / PAO1), UniProt P47205)
Assay: biochemical
Format: biochemical
Conditions: inhibitory activity on Pseudomonas aeruginosa LpxC enzyme, class symbols A/B/C; read-out: Enzyme inhibitory activity
Procedure: Test 1: Evaluation of the Inhibitory Activity on Pseudomonas aeruginosa LpxC Enzyme
An inhibition curve was constructed for each test compound by performing the aforementioned reaction at varying concentrations of the test compound. From this inhibition curve, the concentration of the test compound at which the formation of the reaction product was suppressed by 50% was determined as the IC50 of the test compound, which was an index for the inhibitory activity on Pseudomonas aeruginosa LpxC enzyme.

Row | SMILES | IC50 [nM]
1 | O=C(NC(C(=O)NO)C(=O)NCC1CC1)c1ccc(-c2ccc(OCCO)cc2)cc1 (stereo not shown) [Compound 9, N-(cyclopropylmethyl)-N′-hydroxy-2-({[4′-(2-hydroxyethoxy)biphenyl-4-yl]carbonyl}amino)propanediamide] | 10 to 100
2 | CC(C)OCCNC(=O)C(NC(=O)c1ccc(-c2ccc(OCCO)cc2)cc1)C(=O)NO (stereo not shown) [Compound 10, N-hydroxy-2-({[4′-(2-hydroxyethoxy)biphenyl-4-yl]carbonyl}amino)-N′-[2-(propan-2-yloxy)ethyl]propanediamide] | 10 to 100
3 | O=C(NC(C(=O)NO)C(=O)NCc1cncs1)c1ccc(-c2ccc(OCCO)cc2)cc1 (stereo not shown) [Compound 11, N-hydroxy-2-({[4′-(2-hydroxyethoxy)biphenyl-4-yl]carbonyl}amino)-N′-(1,3-thiazol-5-ylmethyl)propanediamide] | < 10
4 | O=C(NC(C(=O)NO)C(=O)NCc1ccco1)c1ccc(-c2ccc(OCCO)cc2)cc1 (stereo not shown) [Compound 12, N-(furan-2-ylmethyl)-N′-hydroxy-2-({[4′-(2-hydroxyethoxy)biphenyl-4-yl]carbonyl}amino)propanediamide] | < 10
5 | CNC(=O)C(NC(=O)c1ccc(-c2ccc(OCCOCCOCCO)cc2)cc1)C(=O)NO (stereo not shown) [Compound 13, N-hydroxy-2-{[(4′-{2-[2-(2-hydroxyethoxy)ethoxy]ethoxy}biphenyl-4-yl)carbonyl]amino}-N′-methylpropanediamide] | 10 to 100
6 | CNC(=O)C(NC(=O)c1ccc(-c2ccc(OCCOCCO)cc2)cc1)C(=O)NO (stereo not shown) [Compound 14, N-hydroxy-2-[({4′-[2-(2-hydroxyethoxy)ethoxy]biphenyl-4-yl}carbonyl)amino]-N′-methylpropanediamide] | < 10
7 | CNC(=O)C(C(=O)NO)N(C)C(=O)c1ccc(-c2ccc(OCCOCCO)cc2)cc1 (stereo not shown) [Compound 15, N-hydroxy-2-[({4′-[2-(2-hydroxyethoxy)ethoxy]biphenyl-4-yl}carbonyl)(methyl)amino]-N′-methylpropanediamide] | 10 to 100
8 | CNC(=O)C(NC(=O)c1ccc(OC(F)(F)F)cc1)C(=O)NO (stereo not shown) [Compound 16, N-hydroxy-N′-methyl-2-{[4-(trifluoromethoxy)benzoyl]amino}propanediamide] | > 100
9 | CNC(=O)C(C(=O)NO)N(OC)C(=O)c1ccc(-c2ccccc2)cc1 (stereo not shown) [Compound 17, 2-[(biphenyl-4-ylcarbonyl)(methoxy)amino]-N-hydroxy-N′-methylpropanediamide] | 10 to 100
10 | CNC(=O)C(C(=O)NO)N(C)C(=O)c1ccc(-c2ccccc2C)cc1 (stereo not shown) [Compound 18, N-hydroxy-N′-methyl-2-{methyl[(2′-methylbiphenyl-4-yl)carbonyl]amino}propanediamide] | 10 to 100
11 | CNC(=O)C(C(=O)NO)N(C)C(=O)c1ccc(-c2ccc3c(ccn3C)c2)cc1 (stereo not shown) [Compound 19, N-hydroxy-N′-methyl-2-{methyl[4-(1-methyl-1H-indol-5-yl)benzoyl]amino}propanediamide] | < 10
12 | CNC(=O)C(C(=O)NO)N(C)C(=O)c1ccc(-c2ccc(NCCCCO)cc2)cc1 (stereo not shown) [Compound 20, N-hydroxy-2-[({4′-[(4-hydroxybutyl)amino]biphenyl-4-yl}carbonyl)(methyl)amino]-N′-methylpropanediamide] | 10 to 100
13 | CNC(=O)C(C(=O)NO)N(C)C(=O)c1ccc(-c2ccccc2)cc1C (stereo not shown) [Compound 21, N-hydroxy-N′-methyl-2-{methyl[(3-methylbiphenyl-4-yl)carbonyl]amino}propanediamide] | > 100
14 | CNC(=O)C(C(=O)NO)N(C)C(=O)c1ccc(OC(F)(F)F)cc1 (stereo not shown) [Compound 22, N-hydroxy-N′-methyl-2-{methyl[4-(trifluoromethoxy)benzoyl]amino}propanediamide] | > 100
15 | CNC(=O)C(C(=O)NO)N(C)C(=O)c1ccc(-c2ccc(C)cc2F)cc1 (stereo not shown) [Compound 23, 2-{[(2′-fluoro-4′-methylbiphenyl-4-yl)carbonyl](methyl)amino}-N-hydroxy-N′-methylpropanediamide] | < 10
16 | CNC(=O)C(C(=O)NO)N(C)C(=O)c1ccc(-c2ccccc2)cc1O (stereo not shown) [Compound 24, N-hydroxy-2-{[(3-hydroxybiphenyl-4-yl)carbonyl](methyl)amino}-N′-methylpropanediamide] | > 100
17 | CCCCCCCCOc1ccc(C(=O)N(C)C(C(=O)NC)C(=O)NO)cc1 (stereo not shown) [Compound 25, N-hydroxy-N′-methyl-2-{methyl[4-(octyloxy)benzoyl]amino}propanediamide] | 10 to 100
18 | CNC(=O)C(C(=O)NO)N(C)C(=O)c1ccc(-c2ccc3c(ccn3CCCCO)c2)cc1 (stereo not shown) [Compound 26, N-hydroxy-2-[{4-[1-(4-hydroxybutyl)-1H-indol-5-yl]benzoyl}(methyl)amino]-N′-methylpropanediamide] | < 10
19 | CNC(=O)C(C(=O)NO)N(C)C(=O)c1ccc(-c2ccccc2)cc1F (stereo not shown) [Compound 27, 2-{[(3-fluorobiphenyl-4-yl)carbonyl](methyl)amino}-N-hydroxy-N′-methylpropanediamide] | 10 to 100

Row | SMILES | IC50 [nM]
20 | CNC(=O)C(C(=O)NO)N(C)C(=O)c1ccc(-c2ccc(C)c(F)c2)cc1 (stereo not shown) [Compound 28, 2-{[(3′-fluoro-4′-methylbiphenyl-4-yl)carbonyl](methyl)amino}-N-hydroxy-N′-methylpropanediamide] | < 10
21 | CNC(=O)C(C(=O)NO)N(C)C(=O)c1ccc(-c2cccc(C)c2)cc1 (stereo not shown) [Compound 29, N-hydroxy-N′-methyl-2-{methyl[(3′-methylbiphenyl-4-yl)carbonyl]amino}propanediamide] | < 10
22 | CNC(=O)C(C(=O)NO)N(C)C(=O)c1ccc(C2CCCCC2)cc1 (stereo not shown) [Compound 30, 2-[(4-cyclohexylbenzoyl)(methyl)amino]-N-hydroxy-N′-methylpropanediamide] | 10 to 100
23 | CNC(=O)C(C(=O)NO)N(C)C(=O)c1ccc(-c2ccc3c(ccn3CCO)c2)cc1 (stereo not shown) [Compound 31, N-hydroxy-2-[{4-[1-(2-hydroxyethyl)-1H-indol-5-yl]benzoyl}(methyl)amino]-N′-methylpropanediamide] | < 10
24 | CCNc1ccc(-c2ccc(C(=O)N(C)C(C(=O)NC)C(=O)NO)cc2)cc1 (stereo not shown) [Compound 32, 2-[{[4′-(ethylamino)biphenyl-4-yl]carbonyl}(methyl)amino]-N-hydroxy-N′-methylpropanediamide] | < 10
25 | CNC(=O)C(C(=O)NO)N(C)C(=O)c1ccc(-c2ccc3c(c2)cc(COCOC)n3C)cc1 (stereo not shown) [Compound 33, N-hydroxy-2-[(4-{2-[(methoxymethoxy)methyl]-1-methyl-1H-indol-5-yl}benzoyl)(methyl)amino]-N′-methylpropanediamide] | < 10
26 | CNC(=O)C(C(=O)NO)N(C)C(=O)c1ccc(-c2ccc([C@@H](C)NC(=O)OC(C)(C)C)cc2)cc1 (stereo partly drawn) [Compound 34, tert-butyl[(1R)-1-(4′-{[1-(hydroxyamino)-3-(methylamino)-1,3-dioxopropan-2-yl](methyl)carbamoyl}biphenyl-4-yl)ethyl]carbamate] | 10 to 100
27 | CCCCOc1ccc(C(=O)N(C)C(C(=O)NC)C(=O)NO)cc1 (stereo not shown) [Compound 35, 2-[(4-butoxybenzoyl)(methyl)amino]-N-hydroxy-N′-methylpropanediamide] | 10 to 100
28 | CNC(=O)C(C(=O)NO)N(C)C(=O)c1ccc(-c2ccc3ccn(C)c3c2)cc1 (stereo not shown) [Compound 36, N-hydroxy-N′-methyl-2-{methyl[4-(1-methyl-1H-indol-6-yl)benzoyl]amino}propanediamide] | < 10
29 | CCCCc1ccc(C(=O)N(C)C(C(=O)NC)C(=O)NO)cc1 (stereo not shown) [Compound 37, 2-[(4-butylbenzoyl)(methyl)amino]-N-hydroxy-N′-methylpropanediamide] | 10 to 100
30 | CNC(=O)C(C(=O)NO)N(C)C(=O)c1ccc(-c2ccc(NC)c(F)c2)cc1 (stereo not shown) [Compound 38, 2-[{[3′-fluoro-4′-(methylamino)biphenyl-4-yl]carbonyl}(methyl)amino]-N-hydroxy-N′-methylpropanediamide] | < 10
31 | CNC(=O)C(C(=O)NO)N(C)C(=O)c1ccc(-c2ccc3c(c2)CCN3)cc1 (stereo not shown) [Compound 39, 2-{[4-(2,3-dihydro-1H-indol-5-yl)benzoyl](methyl)amino}-N-hydroxy-N′-methylpropanediamide] | 10 to 100
32 | CNC(=O)C(C(=O)NO)N(C)C(=O)c1ccc(-c2ccc3c(c2)cc(CO)n3C)cc1 (stereo not shown) [Compound 41, N-hydroxy-2-[{4-[2-(hydroxymethyl)-1-methyl-1H-indol-5-yl]benzoyl}(methyl)amino]-N′-methylpropanediamide] | < 10
33 | CNC(=O)C(C(=O)NO)N(C)C(=O)c1ccc(-c2ccc(SC)cc2)cc1 (stereo not shown) [Compound 42, N-hydroxy-N′-methyl-2-(methyl {[4′-(methylsulfanyl)biphenyl-4-yl]carbonyl}amino)propanediamide] | < 10
34 | CNC(=O)C(C(=O)NO)N(C)C(=O)c1ccc(-c2ccc(N(C)C(=O)OC(C)(C)C)c(C)c2)cc1 (stereo not shown) [Compound 44, tert-butyl(4′-{[1-(hydroxyamino)-3-(methylamino)-1,3-dioxopropan-2-yl](methyl)carbamoyl}-3-methylbiphenyl-4-yl)methylcarbamate] | 10 to 100
35 | CNC(=O)C(C(=O)NO)N(C)C(=O)c1ccc(-c2ccc(NC)c(C)c2)cc1 (stereo not shown) [Compound 45, N-hydroxy-N′-methyl-2-(methyl {[3′-methyl-4′-(methylamino)biphenyl-4-yl]carbonyl}amino)propanediamide] | < 10
36 | CNC(=O)C(C(=O)NO)N(C)C(=O)c1ccc(-c2ccc3c(c2)cc(CN2CCOCC2)n3C)cc1 (stereo not shown) [Compound 46, N-hydroxy-N′-methyl-2-(methyl {4-[1-methyl-2-(morpholin-4-ylmethyl)-1H-indol-5-yl]benzoyl}amino)propanediamide] | 10 to 100
37 | CNC(=O)C(C(=O)NO)N(C)C(=O)c1ccc(OC(F)(F)C(F)F)cc1 (stereo not shown) [Compound 47, N-hydroxy-N′-methyl-2-{methyl[4-(1,1,2,2-tetrafluoroethoxy)benzoyl]amino}propanediamide] | > 100
